Source: patent EP4553080A1, “NUCLEOSIDE DERIVATIVES AS ANTIVIRAL AGENTS AGAINST CORONAVIRUSES” (Ustav Organicke Chemie a Biochemie AV CR, v.v.i., priority 2023, dated 2025)

Molecular target: nsp14 methyltransferase from SARS-CoV-2 (Severe acute respiratory syndrome coronavirus 2, UniProt P0DTD1)
Test: Nsp14 MTase activity inhibition in vitro (EchoMS assay)
Type: biochemical
Conditions: recombinant nsp14 protein expressed in E. coli; dose-response curve

Row | SMILES | IC50
1 | Cc1noc(-c2ccccc2)c1CSC[C@H]1O[C@@H](n2cc(-c3ccccc3)c3c(N)ncnc32)[C@H](O)[C@@H]1O [Compound 149, (2R,3R,4S,5S)-2-(4-Amino-5-phenyl-7H-pyrrolo[2,3-d]pyrimidin-7-yl)-5-((((3-methyl-5-phenylisoxazol-4-yl)methyl)thio)methyl)tetrahydrofuran-3,4-diol] | 30 to 100 nM
2 | COc1ncnc(-c2ccccc2)c1CSC[C@H]1O[C@@H](n2ccc3c(N)ncnc32)[C@H](O)[C@@H]1O [Compound 110c, (2R,3R,4S,5S)-2-(4-Amino-7H-pyrrolo[2,3-d]pyrimidin-7-yl)-5-((((4-methoxy-6-phenylpyrimidin-5-yl)methyl)thio)methyl)tetrahydrofuran-3,4-diol] | 500 to 2000 nM
3 | Cc1noc(-c2ccccc2)c1CSC[C@H]1O[C@@H](n2cc(C#Cc3cncnc3)c3c(N)ncnc32)[C@H](O)[C@@H]1O [Compound 172b] | 10 to 30 nM
4 | Cc1noc(-c2ccccc2)c1CSC[C@H]1O[C@@H](n2cc(C(C)C)c3c(N)ncnc32)[C@H](O)[C@@H]1O [Compound 129b] | 100 to 500 nM
5 | CCCCCc1cn([C@@H]2O[C@H](CSCc3c(C)noc3-c3ccccc3)[C@@H](O)[C@H]2O)c2ncnc(N)c12 [Compound 132b, (2R,3R,4S,5S)-2-(4-Amino-5-pentyl-7H-pyrrolo[2,3-d]pyrimidin-7-yl)-5-((((3-methyl-5-phenylisoxazol-4-yl)methyl)thio)methyl)tetrahydrofuran-3,4-diol] | 500 to 2000 nM
6 | Cc1noc(-c2ccccc2)c1CSC[C@H]1O[C@@H](n2cc(-c3cncn3C)c3c(N)ncnc32)[C@H](O)[C@@H]1O [Compound 155, (2R,3R,4S,5S)-2-(4-Amino-5-(1-methyl-1H-imidazol-5-yl)-7H-pyrrolo[2,3-d]pyrimidin-7-yl)-5-((((3-methyl-5-phenylisoxazol-4-yl)methyl)thio)methyl)tetrahydrofuran-3,4-diol] | 30 to 100 nM
7 | Nc1ncnc2c1ccn2[C@@H]1O[C@H](CSCc2c(-c3ccccc3)noc2-c2ccccc2)[C@@H](O)[C@H]1O [Compound 109c, (2R,3R,4S,5S)-2-(4-Amino-7H-pyrrolo[2,3-d]pyrimidin-7-yl)-5-((((3,5-diphenylisoxazol-4-yl)methyl)thio)methyl)tetrahydrofuran-3,4-diol] | 100 to 500 nM
8 | Cc1noc(-c2ccc(F)cc2)c1CSC[C@H]1O[C@@H](n2ccc3c(N)ncnc32)[C@H](O)[C@@H]1O [Compound 97c, (2R,3R,4S,5S)-2-(4-Amino-7H-pyrrolo[2,3-d]pyrimidin-7-yl)-5-((((5-(4-fluorophenyl)-3-methylisoxazol-4-yl)methyl)thio)methyl)tetrahydrofuran-3,4-diol] | 100 to 500 nM
9 | Cc1noc(-c2ccccc2)c1CSC[C@H]1O[C@@H](n2cc(-c3ccc(C#N)cc3)c3c(N)ncnc32)[C@H](O)[C@@H]1O [Compound 143b, 4-(4-Amino-7-((2R,3R,4S,5S)-3,4-dihydroxy-5-((((3-methyl-5-phenylisoxazol-4-yl)methyl)thio)methyl)tetrahydrofuran-2-yl)-7H-pyrrolo[2,3-d]pyrimidin-5-yl)benzonitrile] | 10 to 30 nM
10 | Cc1noc(-c2ccccc2)c1CSC[C@H]1O[C@@H](n2cc(C#Cc3cccc4ccccc34)c3c(N)ncnc32)[C@H](O)[C@@H]1O [Compound 175b, (2R,3R,4S,5S)-2-(4-Amino-5-(naphthalen-1-ylethynyl)-7H-pyrrolo[2,3-d]pyrimidin-7-yl)-5-((((3-methyl-5-phenylisoxazol-4-yl)methyl)thio)methyl)tetrahydrofuran-3,4-diol] | 500 to 2000 nM
